In patent publication US11109593B2, “Isoxazolin-5-one derivative and herbicide containing same as active ingredient” (HOKKO CHEMICAL INDUSTRY CO., LTD., priority 2017, dated 2021):

Assays:
Type in all cases: in vivo
Echinochloa crus-galli [1] = experiment: Test Example 2: herbicidal effect test by treatment during growing period in paddy rice cultivation (seven days after seeding); conditions: 120 g/10a active ingredient, assessed 14 days after treatment, dry weight vs untreated area
Method in brief: (§1)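 Seeds sown 0–1 cm deep in puddled, fertilised paddy soil with about 3 cm standing water in a glass greenhouse. Diluted emulsion dropped into the water seven days after seeding at 120 g active ingredient per 10 ares. Herbicidal rate (%) from mean dry weight vs untreated, duplicate, 14 days after treatment.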

[2] = tested on: broad leaf weeds (Lindernia pyxidaria and Monochoria vaginalis); experiment: as above; conditions: 120 g/10a active ingredient, assessed 14 days after treatment, dry weight vs untreated area
Method in brief: as §1

Scirpus juncoides [3] = experiment: as above; conditions: 120 g/10a active ingredient, assessed 14 days after treatment, dry weight vs untreated area
Method in brief: as §1

Echinochloa crus-galli [4] = experiment: Test Example 1: herbicidal effect test by treatment of rice paddy soil (immediately after seeding); conditions: 120 g/10a active ingredient, dry weight vs untreated area, 14 days after treatment
Method in brief: (§2)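 Applied at 120 g a.i./10 ares as diluted emulsion dropped into flooded (~3 cm) paddy soil pots right after sowing seeds 0–1 cm deep; greenhouse, two replicates. At day 14, dry weight of treated versus untreated plants gives % herbicidal rate.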

[5] = tested on: broad leaf weeds (Lindernia pyxidaria and Monochoria vaginalis); experiment: as above; conditions: 120 g/10a active ingredient, dry weight vs untreated area, 14 days after treatment
Method in brief: as §2

Scirpus juncoides [6] = experiment: as above; conditions: 120 g/10a active ingredient, dry weight vs untreated area, 14 days after treatment
Method in brief: as §2

Echinochloa crus-galli [7] = experiment: Test Example 3: herbicidal effect test by treatment of dry field farming soil (one day after seeding); conditions: 120 g/10a active ingredient, evaluated 14 days after treatment
Method in brief: (§3)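 Alluvial dry-field soil in pots, top 1 cm mixed with 20 seeds per weed species. One day after seeding, the water-diluted emulsion was sprayed onto the soil surface at 100 L per 10 ares (120 g active ingredient per 10 ares). Duplicate pots; herbicidal rate (%) from plant dry weight versus untreated, 14 days after treatment.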

Amaranthus viridis [8] = experiment: as above; conditions: 120 g/10a active ingredient, evaluated 14 days after treatment
Method in brief: as §3

Chenopodium album [9] = experiment: as above; conditions: 120 g/10a active ingredient, evaluated 14 days after treatment
Method in brief: as §3

southern crabgrass [10] = experiment: as above; conditions: 120 g/10a active ingredient, evaluated 14 days after treatment
Method in brief: as §3

Echinochloa crus-galli [11] = experiment: Test Example 4: herbicidal effect test by treatment of leave and stem in dry field farming (seven days after seeding); conditions: 120 g/10a active ingredient; emulsion sprayed seven days after seeding; evaluated 14 days after treatment
Method in brief: (§4)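 Twenty seeds per species were mixed into the top 1 cm of alluvial soil in 36 cm^2 pots; emulsions were sprayed seven days after seeding at 100 L per 10 ares (120 g active ingredient per 10 ares). Herbicidal rate (%) = {1 − treated/untreated mean dry weight} × 100, 14 days after treatment, duplicate.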

Amaranthus viridis [12] = experiment: as above; conditions: 120 g/10a active ingredient; emulsion sprayed seven days after seeding; evaluated 14 days after treatment
Method in brief: as §4

Chenopodium album [13] = experiment: as above; conditions: 120 g/10a active ingredient; emulsion sprayed seven days after seeding; evaluated 14 days after treatment
Method in brief: as §4

southern crabgrass [14] = experiment: as above; conditions: 120 g/10a active ingredient; emulsion sprayed seven days after seeding; evaluated 14 days after treatment
Method in brief: as §4

| SMILES | Herbicidal rate (%) Echinochloa crus-galli (Echinochloa crus-galli [1]) [%] | Herbicidal rate (%) Lindernia pyxidaria [2] [%] | Herbicidal rate (%) Monochoria vaginalis [2] [%] | Herbicidal rate (%) Scirpus juncoides (Scirpus juncoides [3]) [%] | Herbicidal rate (%) Echinochloa crus-galli (Echinochloa crus-galli [4]) [%] | Herbicidal rate (%) Lindernia pyxidaria [5] [%] | Herbicidal rate (%) Monochoria vaginalis [5] [%] | Herbicidal rate (%) Scirpus juncoides (Scirpus juncoides [6]) [%] | herbicidal rate, Echinochloa crus-galli (Echinochloa crus-galli [7]) [%] | herbicidal rate, Amaranthus viridis (Amaranthus viridis [8]) [%] | herbicidal rate, Chenopodium album (Chenopodium album [9]) [%] | herbicidal rate, southern crabgrass (southern crabgrass [10]) [%] | herbicidal effect (herbicidal rate), Echinochloa crus-galli (Echinochloa crus-galli [11]) [%] | herbicidal effect (herbicidal rate), Amaranthus viridis (Amaranthus viridis [12]) [%] | herbicidal effect (herbicidal rate), Chenopodium album (Chenopodium album [13]) [%] | herbicidal effect (herbicidal rate), southern crabgrass (southern crabgrass [14]) [%] |
| --- | --- | --- | --- | --- | --- | --- | --- | --- | --- | --- | --- | --- | --- | --- | --- | --- |
| Cc1c(Cc2ccccc2NS(=O)(=O)C(F)(F)F)c(=O)on1C1CCc2ccccc21 (centres unmarked) [Compound 1-222] | 90 | 90 | 90 | 90 | 100 | 90 | 90 | 90 | 100 | 100 | 100 | 100 | 70 | 40 | 50 | 80 |
| CCOC(=O)N(c1ccccc1Cc1c(C)n(C(C)(C)C)oc1=O)S(=O)(=O)C(F)(F)F [Compound 1-604] | 90 | 90 | 90 | 90 | 90 | 90 | 90 | 90 | 90 | 90 | 90 | 90 | 90 | 40 | 40 | 90 |
| Cc1c(Cc2ccccc2N(C(=O)OCc2ccccc2)S(=O)(=O)C(F)(F)F)c(=O)on1C(C)(C)C [Compound 1-781] | 90 | 90 | 90 | 90 | 90 | 90 | 90 | 90 | 90 | 90 | 90 | 90 | 90 | 40 | 40 | 90 |
| CCCCC(CC)Cn1oc(=O)c(Cc2ccccc2NS(=O)(=O)C(F)(F)F)c1C (centres unmarked) [Compound 1-130] | 100 | 90 | 90 | 80 | 100 | 100 | 100 | 100 | 90 | 40 | 50 | 70 | 60 | 50 | 40 | 60 |
| CCC(C)n1oc(=O)c(Cc2ccccc2N(C(=O)Oc2ccccc2)S(=O)(=O)C(F)(F)F)c1C (centres unmarked) [Compound 1-763] | 90 | 90 | 90 | 90 | 90 | 90 | 90 | 90 | 90 | 90 | 90 | 90 | 90 | 40 | 40 | 90 |
| Cc1c(Cc2ccccc2N(S(C)(=O)=O)S(=O)(=O)C(F)(F)F)c(=O)on1CC(C)(C)C [Compound 1-893] | 90 | 90 | 90 | 90 | 90 | 90 | 90 | 90 | 90 | 90 | 90 | 90 | 90 | 40 | 40 | 90 |
| COCC(C)n1oc(=O)c(Cc2ccccc2N(C(=O)OC(C)C)S(=O)(=O)C(F)(F)F)c1C (centres unmarked) [Compound 1-647] | 90 | 90 | 90 | 90 | 90 | 90 | 90 | 90 | 90 | 90 | 90 | 90 | 90 | 40 | 40 | 90 |
| CCS(=O)(=O)N(c1ccccc1Cc1c(C)n(CCSC)oc1=O)S(=O)(=O)C(F)(F)F [Compound 1-916] | 90 | 90 | 90 | 90 | 90 | 90 | 90 | 90 | 90 | 90 | 90 | 90 | 90 | 40 | 40 | 90 |
